Results: patent US10954287B2, “Ras binding peptides and methods of use” (Ra Pharmaceuticals, Inc., priority 2016, dated 2021)

How the values were obtained:
[1] = Compound stability in mouse plasma; format: in vitro ADME; conditions: serum (method text and assay name say plasma), 37° C., pH 7.4
Procedure: (§1) Compounds were assayed for stability in mouse and rat plasma under the following conditions. Plasma was adjusted to pH 7.4. DMSO stocks at 10 mM concentration were prepared for the test compounds. Aliquots of the DMSO solutions were dosed into 1 mL of plasma, which had been pre-warmed to 37° C., at a final test compound concentration of 10 μM. The vials were kept in a benchtop Thermomixer® (Eppendorf, Hauppauge, N.Y.) for the duration of the experiment. Aliquots (100 μL) were taken at each timepoint and added to a 96-well plate that had been pre-filled with 300 μL of an acetonitrile solution containing mixture of the internal standards (metoprolol, propranalol and warfarin each at 500 ng/mL). Samples were stored at 4° C. until the end of the experiment. After the final timepoint was sampled, the plate was mixed and then centrifuged at 3,000 rpm for 10 minutes. Aliquots of the supernatant were removed and analyzed by LC-HRAMS.

[2] = molecular target: T1, GST-tagged RAF-RBD and biotinylated H-Ras loaded with GMPPNP (Homo sapiens, UniProt P01112, G12V); assay: TR-FRET of the interaction between GST-tagged RAF-RBD and biotinylated H-Ras; format: binding; conditions: 12.5 nM Bio-H-Ras GMPPNP, 10 nM GST-RAF-RBD, FIG. 8C
T1 construct: made in house; host or cells: E. coli BL21 (DE3)
Procedure: The interaction between GST-tagged RAF-RBD and biotinylated H-Ras (Bio-H-Ras) loaded with GMPPNP was detected using TR-FRET. Assays were performed in 384 well plates (Proxiplate-384 plus, Perkin Elmer, Waltham, Mass.). Bio-H-Ras GMPPNP was diluted in assay buffer (50 mM Tris-HCl, pH 7.5, 5 mM MgCl2, 0.0025% Tween-80, 1 mM DTT, and 50 nM GMPPNP) at a final concentration of 12.5 nM. R4000 was serially diluted in DMSO, then diluted in assay buffer and incubated with Bio-H-Ras GMPPNP for 30 minutes at room temperature (1% DMSO final). GST-RAF-RBD was added to the assay (10 nM final) and incubated 60 minutes at room temperature. Europium cryptate conjugated-anti-GST (donor; Perkin Elmer, Waltham, Mass.) and streptavidin conjugated to SureLight-Allophycocyanin (acceptor; Perkin Elmer, Waltham, Mass.) was added to the wells at final concentrations of 1 nM and 1.25 nM, respectively. Reaction mixtures were incubated at room temperature for 2 hours then detected using an EnVision Multilabel Plate Reader (Perkin Elmer, Waltham, Mass.) with excitation at 340 nm and emission at 615 nm (donor) and 665 nm (acceptor). FRET ratios (615 emission/665 emission) were calculated per well. Data was analyzed using GraphPad Prism, and IC50 values were generated by fitting dose response data to a 4 parameter fit sigmoidal dose response curve. […]

[3] = molecular target: T2, SOS^cat catalyzed nucleotide exchange of H-Ras-GDP (Homo sapiens, UniProt P01112, G12V); assay: SOS-mediated nucleotide exchange (MANT-GMPPNP fluorescence); format: biochemical; conditions: 25 μM of R4000, 1 μM H-Ras-GDP, 2 μM SOS^cat
T2 construct: made in house; host or cells: E. coli BL21 (DE3)
Procedure: A sequence encoding the Ras exchanger motif and Cdc25 domains of human guanine nucleotide exchange factor SOS1 (amino acids 564-1049, designated as SOS^cat hereafter) was synthesized at GeneArt (Life Technologies, Carlsbad, Calif.) and subcloned into the pET28a expression vector (Novagen, Darmstadt, Germany) for expression in E. coli. The identity of the expression construct was confirmed by DNA sequencing. The plasmid encoding SOS^cat was transformed into BL21 (DE3). Cells were grown at 37° C. to an absorbance of 0.5 (OD600) in LB media containing 25 μg/mL of kanamycin and then transferred to 20° C. prior to induction with 0.1 mM IPTG. Cells were harvested 15 hours after induction and the pellet was lysed with B-PER Bacteria Extraction Reagent (Pierce/Thermo Scientific, Rockford, Ill.) containing EDTA-free protease inhibitors. […]
The SOS^cat protein was then dialysed into a buffer containing 25 mM Tris-HCl, pH 7.5, 150 mM NaCl, 5 mM MgCl2, and 1 mM DTT and stored at −80° C. […] Changes in fluorescence were measured by a fluorescence spectrometer (SpectraMax M3; Molecular Devices) in a black 96 half-area well plate (Corning 3686). Fluorescence was excited at λ=370 nm and emission was monitored at λ=450 nm every 20 s for over 30 minutes at 22° C. The nucleotide exchange rates were expressed as Vmax (milli-units per minute).

[4] = Compound stability in rat plasma; format: in vitro ADME; conditions: serum (method text and assay name say plasma), 37° C., pH 7.4
Procedure: as §1

For CCC[C@H](NC(C)=O)C(=O)N[C@H]1CSCc2cccc(c2)CSC[C@@H](C(N)=O)NC(=O)CN(C)C(=O)[C@H](Cc2ccc(F)cc2)N(C)C(=O)[C@H](Cc2ccc(O)cc2)NC(=O)[C@H](Cc2c[nH]c3ncccc23)NC(=O)[C@H](c2ccccc2)NC(=O)[C@H](C)N(C)C(=O)[C@H](Cc2cnc[nH]2)NC(=O)[C@H](CCCCN)NC(=O)[C@H](C(C)(C)C)NC(=O)[C@H](Cc2ccc(O)cc2)NC1=O (relative stereo) [Compound R4000, ACE-NVA-CYS*-TYR-TBG-LYS-HIS-NMA-PHG-7AW-TYR-MFF-SAR-CYS*-NH2], the half-life at 10 μM [1] was 5 h, the “blocking of H-Ras binding to RAF” value [2] was “does not block binding to RAF” and the “effect on the rate of SOS catalyzed nucleotide exchange” value [3] was “does not effect the rate of exchange”. For the same molecule, the half-life at 10 μM [4] was 2.1 h.
